From article PMC12530843, “Identification of a New Interesting BAG3 Modulator Able to Disrupt Cancer‐Related Pathways” (Chemmedchem, 2025)

Experiments:
HeLa cells [1] = assay: Thioflavin T (ThT) protein misfolding staining; format: cell-based, human; details: HeLa, 3, 6 and 12 µM, 72 h; p < 0.01 (3 µM), p < 0.001 (6, 12 µM) vs. Ctrl
Method: Protein misfolding was analyzed by using Thioflavin T (ThT, Sigma Aldrich, St. Louis, MO, USA) staining.^[ [39] ^] HeLa cells (4 × 10^3 cells well^−1) were grown in 96‐well plates and allowed to adhere for 24 h. The medium was then replaced, and the cells were treated with compound 2 (3, 6, and 12 µM) for 72 h. The final concentration of DMSO for the tested compound was 0.1%, which is consistent with the percentage of DMSO used in the negative control. After treatments, the culture medium was replaced, cells were washed with PBS and 100 μL well^−1 of ThT was added (final concentration, 20 µM). After incubation at 37 °C for 20 min in the dark, live cells were analyzed by using ZOE Fluorescent Cell Imager microscope (Biorad, Hercules, California, USA). Magnification, 20×. Scale bar: 100 μm (N ≥ 5). Quantitative analyses were performed in end point mode using a PerkinElmer EnSpire multimode plate reader (excitation/emission 450 nm/482 nm).

HeLa cells [2] = assay: Annexin V-FITC/PI apoptosis staining; format: cell-based, human; details: 72 h
Method: Apoptosis in HeLa cells was evaluated using Annexin V‐FITC/PI staining. Hela cells (20 × 10^3) were seeded into 24‐well plates and incubated for 72 h with compound 2. The final concentration of DMSO for the tested compound was 0.1%, which was consistent with the percentage of DMSO used in the negative control. After treatments, cells were resuspended in a 100 μL of assay buffer per well, after which 5 μL of Annexin V‐FITC and 1 μL of PI reagents were added. […] The cells were analyzed with a Becton Dickinson FACScan flow cytometer using the Cell Quest software, version 4 (Franklin Lakes, NJ, USA).

BAG3 = molecular target: T1, BAG3 (Homo sapiens, UniProt O95817); assay: t-LiP-MS (targeted limited proteolysis-MS) in HeLa cell lysate; format: binding; details: SP18 100 µM, subtilisin 30 min
T1 construct: endogenous in cells; host or cells: HeLa cell lysate
T1 sequence (O95817 whole entry): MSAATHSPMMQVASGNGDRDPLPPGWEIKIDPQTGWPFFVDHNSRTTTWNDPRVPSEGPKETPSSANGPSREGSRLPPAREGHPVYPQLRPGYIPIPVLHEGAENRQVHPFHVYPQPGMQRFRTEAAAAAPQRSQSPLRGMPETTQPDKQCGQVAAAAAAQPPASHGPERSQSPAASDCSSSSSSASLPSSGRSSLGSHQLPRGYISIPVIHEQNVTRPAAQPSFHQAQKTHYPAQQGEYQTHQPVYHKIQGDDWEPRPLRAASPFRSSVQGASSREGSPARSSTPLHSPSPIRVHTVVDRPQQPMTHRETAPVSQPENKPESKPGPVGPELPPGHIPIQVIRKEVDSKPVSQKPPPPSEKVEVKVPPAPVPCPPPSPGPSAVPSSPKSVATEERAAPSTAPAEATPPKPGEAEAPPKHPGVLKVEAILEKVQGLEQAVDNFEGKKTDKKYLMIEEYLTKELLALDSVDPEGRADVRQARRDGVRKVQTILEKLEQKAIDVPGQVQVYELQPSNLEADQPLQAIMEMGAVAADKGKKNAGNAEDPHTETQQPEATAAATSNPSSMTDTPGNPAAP
Method: To develop the t‐LiP‐MS experiment, MRM methods were optimized by selecting tryptic peptides for BAG3 (UniProt Accession: O95817) using the Human PeptideAtlas data repository in combination with SRMAtlas for their daughter ion identification. First, the three best transitions for each peptide were selected (obtaining a list of 57 transitions) and tested on a tryptic‐digested HeLa cell lysate, following the protocol of Capuano et al., 2024.^[ [41] ^] For chromatographic separation, 15 µL of peptide mixture samples (dissolved in 10% formic acid (FA) to a final concentration of 2 µg µL^−1) were injected and separated on an Aeris Peptide XB C18 column (50 × 2.1 mm, 3.6 μm, 100 Å, Phenomenex, Torrance, USA) using a gradient from 5% to 95% B in 12 min (A: 0.1% FA in H2O, B: 0.1% FA in CH3CN). QTrap parameters were as follows: curtain gas (CUR) = 30; ion‐spray voltage (IS) = 5500; temperature (TEM) = 250 °C; ion source gas 1 (GS1) = 25; ion source gas 2 (GS2) = 25; declustering potential (DP) = 80; entrance potential (EP) = 15; collision cell exit potential (CXP) = 12. Data acquisition and processing were performed using Analyst software 1.6.2 (AB Sciex, Foster City, CA, USA). At the end of the preliminary experiment, 14 best transitions were selected for the final MRM method.
For the t‐Lip‐MS experiment, HeLa cell lysate ([…]) was divided into aliquots and incubated for 1 hr either with DMSO (control sample) or SP18 (100 µM in DMSO) at room temperature under shaking (Mini‐Rotator, Biosan). Samples were then first subjected to limited proteolysis with the nonspecific enzyme subtilisin (enzyme‐to‐proteins ratio of 1:1500 w/w) for 30 min, at room temperature and under continuous shaking (500 rpm, Thermomixer, Biosan) and then extensively digested with the specific protease trypsin (enzyme to proteins ratio of 1:100 w/w, overnight, room temperature, 300 RPM).^[ [42] ^] […] Fold change (Fc) (the ratio between the peak area in the treated sample and control sample) was calculated for each peptide, and only those with Fc ≥1.5 and p‐value ≤0.05 were considered protected.^[ [41] ^]

O=C(OCc1cn(Cc2ccc3c(c2)C(=O)c2ccccc2C3=O)nn1)c1cccc([N+](=O)[O-])c1 [Compound 2, (1‐((9,10‐Dioxo‐9,10‐dihydroanthracen‐2‐yl)methyl)‐1H‐1,2,3‐triazol‐4‐yl)methyl 3‐nitrobenzoate]
protein misfolding and aggregate formation (ThT) (HeLa cells [1]): significant induction of protein misfolding and aggregate formation
cells undergoing apoptosis (HeLa cells [2]; 20 µM, p < 0.05 vs. control): 21.6 ± 1.14%
cells undergoing apoptosis (HeLa cells [2]; 30 µM, p < 0.05 vs. control): 28.0 ± 3.41%
cells undergoing apoptosis (HeLa cells [2]; 50 µM, p < 0.01 vs. control): 40.2 ± 2.11%

O=C(OCc1cn(Cc2ccc(C(=O)c3ccccc3)cc2)nn1)c1cccc([N+](=O)[O-])c1 [SP18]
Fold change (Fc) of protected BAG3 peptide V [432–445] K (BAG3; p value 0.01): 1.74
Fold change (Fc) of protected BAG3 peptide E [461–473] R (BAG3; p value 0.02): 1.67
Fold change (Fc) of protected BAG3 peptide T [231–249] K (BAG3; p value 0.04): 1.68
